One series has as its target T1, DPP-IV enzyme (Homo sapiens, UniProt P27487).
T1 construct: soluble human proteins (DPP-IV enzyme) produced in a baculovirus expression system; made in house; host or cells: baculovirus expression system (Life Technologies)
Description: In vitro DPP-IV inhibitory activity using enzymatic (fluorescence-based) assay. The class given is biochemical. To be noted: soluble human DPP-IV, H-Gly-Pro-AMC 200 μM, pH 7.8, 25° C., 30 min; read-out: % In-vitro DPPIV Inhibition IC50. As for the experimental part: In Vitro DPP-IV Inhibitory Activity Using Enzymatic Assay:
In vitro enzyme (DPP-IV) inhibitory activity was determined using fluorescence-based assay (Anal. Biochem., 200, 352, 1992). The Gly-Pro-AMC was used as a substrate (which is cleaved by the enzymes to release the fluorescent AMC) and soluble human proteins (DPP-IV enzyme) produced in a baculovirus expression system (Life Technologies) was used as the enzyme source. The H-Gly-Pro-AMC (200 μM) was incubated with DPP-IV enzyme in the presence of various concentrations (30 & 100 nM) of test compounds. Reaction was carried out at pH 7.8 (HEPES buffer 25 mM containing 1.0% BSA, 140 mM NaCl, 16 mM MgCl2, 2.8% DMSO) in a total volume of 100 μl at 25° C. for 30 min., in the dark. Reaction was terminated with acetic acid (25 μl of 25% solution). Activity (fluorescence) was measured using Spectra Max fluorometer (Molecular Devices, Sunnyvale Calif.) by exciting at 380 nm and emission at 460 nm.

In a further series the test system is C57BL/6J mice. The experiment in a line: In vivo antihyperglycaemic/antidiabetic activity (OGTT), acute single dose 120-min time-course. To be noted: Mus musculus, 2 h; male C57BL/6J mice, acute single dose 0,3 mg/kg po, 120-min time-course, n = 6, Mean ± SEM; read-out: In vivo OGTT C57; % Glucose change. As for the experimental part:
Acute single dose 120-min time-course experiments were carried out in male C57BL/6J mice, age 8-12 weeks, bred in-house. Animals were housed in groups of 6 animals per cage, for a week, in order to habituate them to vivarium conditions (25±4° C., 60-65% relative humidity, 12: 12 h light: dark cycle, with lights on at 7.30 am). All the animal experiments were carried out according to the internationally valid guidelines following approval by the ‘Zydus Research Center animal ethical committee’.
The in-vivo glucose lowering properties of the test compounds were evaluated in C57BL/6J (mild hyperglycemic) animal models as described below. Two days prior to the study, the animals were randomized and divided into groups (n=6), based upon their fed glucose levels. On the day of experiment, food was withdrawn from all the cages, water was given ad-libitum and were kept for overnight fasting. Vehicle (normal saline)/test compounds were administered orally, on a body weight basis. Soon after the 0 min. blood collection from each animal, the subsequent blood collections were done at 30, 60 and 120 or upto 240 min., via retro-orbital route, under light ether anesthesia (Diabetes Obesity Metabolism, 7, 307, 2005; Diabetes, 52, 751, 2003).
Blood samples were centrifuged and the separated serum was immediately subjected for the glucose estimation. Serum for insulin estimation was stored at −70° C. until used for the insulin estimation. The glucose estimation was carried out with DPEC-GOD/POD method (Ranbaxy Fine Chemicals Limited, Diagnostic division, India), using Spectramax-190, in 96-microwell plate reader (Molecular devices Corporation, Sunnyvale, Calif.). […] The AUC and BCAUC obtained from graphs were analyzed for one way ANOVA, followed by Dunnett's post test, using Graph Pad prism software.

A short description of series [1]: Pharmacokinetic study in Wistar rats. The series is classed as in vivo. The note with it: rat, plasma, po; male wistar rats, 2 mg/kg orally, n = 6, Mean ± SD. As for the experimental part: Pharmacokinetic Study in Wistar Rats
The pharmacokinetic parameters of test compounds were determined in male wistar rats (n=6). Briefly, test compounds were administered orally/iv on a body weight basis to overnight fasted rats. Serial blood samples were collected in microcentrifuge tubes containing EDTA at pre-dose and post-dose after compounds administration, over a period of 168 hrs. Blood was collected at various time points and centrifuged at 4° C. The obtained plasma was frozen, stored at −70° C. and the concentrations of compounds in plasma were determined by the LC-MS/MS (Shimadzu LC 1 OAD, USA), using YMC hydrosphere C18 (2.0×50 mm, 3 μm) column (YMC Inc., USA). The pharmacokinetic parameters, such as Tmax, t1/2, AUC and % F were calculated using a non-compartmental model of WinNonlin software version 5.2.1.

Here are results for 13 compounds from patent US20150246025A1, “2-PHENYL-5-HETEROCYCLYL-TETRAHYDRO-2H-PYRAN-3-AMINE COMPOUNDS FOR USE IN THE TREATMENT OF DIABETES AND ITS ASSOCIATED DISORDERS” (CADILA HEALTHCARE LIMITED, priority 2012, published 2015).

T1 sequence (P27487 39-766 limits assumed): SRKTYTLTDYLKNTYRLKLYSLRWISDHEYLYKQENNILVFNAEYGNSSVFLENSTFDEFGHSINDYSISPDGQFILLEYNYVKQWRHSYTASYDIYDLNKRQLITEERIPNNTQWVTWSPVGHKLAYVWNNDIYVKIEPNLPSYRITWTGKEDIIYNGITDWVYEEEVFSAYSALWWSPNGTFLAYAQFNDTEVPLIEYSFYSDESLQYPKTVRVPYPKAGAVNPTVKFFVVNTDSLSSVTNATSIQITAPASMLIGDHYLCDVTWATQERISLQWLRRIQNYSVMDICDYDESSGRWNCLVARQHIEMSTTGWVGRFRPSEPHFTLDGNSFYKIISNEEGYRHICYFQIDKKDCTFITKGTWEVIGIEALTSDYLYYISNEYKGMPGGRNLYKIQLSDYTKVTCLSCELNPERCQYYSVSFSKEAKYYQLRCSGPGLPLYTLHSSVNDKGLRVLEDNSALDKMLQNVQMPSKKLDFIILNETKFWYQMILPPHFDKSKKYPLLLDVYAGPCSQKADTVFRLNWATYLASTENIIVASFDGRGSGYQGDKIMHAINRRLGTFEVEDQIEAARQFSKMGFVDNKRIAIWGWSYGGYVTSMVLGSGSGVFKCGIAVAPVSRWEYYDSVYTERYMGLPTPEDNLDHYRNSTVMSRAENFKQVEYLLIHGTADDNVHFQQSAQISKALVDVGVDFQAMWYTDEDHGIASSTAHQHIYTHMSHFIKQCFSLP

With `N[C@H]1C[C@@H](N2CC3COCC3C2)CO[C@@H]1c1cc(F)ccc1F` (stereo partly drawn) [Compound 3, (2R,3S,5R)-2-(2,5-difluorophenyl)-5-(tetrahydro-1H-furo[3,4-c]pyrrol-5(3H)-yl)tetrahydro-2H-pyran-3-amine], the IC50 on DPP-IV enzyme is under 100 nM. Further, the change in vivo at 0.3 mg/kg with C57BL/6J mice was -27.6 ± 1.6%. In series [1], this compound showed an AUC of 2970 ± 1070 ng·h/mL, a Cmax of 301 ± 44.3 ng/mL and a half-life of 48.2 ± 11.1 h.
For `CS(=O)(=O)N1CC2CN([C@H]3CO[C@H](c4cc(F)ccc4F)[C@@H](N)C3)CC2C1` (stereo partly drawn) [Compound 1, (2R,3S,5R)-2-(2,5-difluorophenyl)-5-(5-(methylsulfonyl)-hexahydro-pyrrolo[3,4-c]pyrrol-2(1H)-yl)tetrahydro-2H-pyran-3-amine] the same measures were under 30 nM, -22.5 ± 4.5%, 888 ± 129 ng·h/mL, 148 ± 34.2 ng/mL and 33.3 ± 2.07 h.
As for `CC(=O)N[C@H]1C[C@@H](N2CC3=C(C2)CN(S(C)(=O)=O)C3)CO[C@@H]1c1cc(F)ccc1F` [Compound 46, N-((2R,3S,5R)-2-(2,5-difluorophenyl)-5-(5-(methylsulfonyl)-5,6-dihydropyrrolo[3,4-c]pyrrol-2(1H,3H,4H)-yl)tetrahydro-2H-pyran-3-yl)acetamide], the IC50 at DPP-IV enzyme is under 100 nM. Also, the change in vivo at 0.3 mg/kg in the series on C57BL/6J mice was -9.3 ± 3.8%.
Regarding `CS(=O)(=O)N1CC2=C(CN([C@H]3CO[C@H](c4cc(F)ccc4F)[C@@H](N)C3)C2)C1` [Compound 8, (2R,3S,5R)-2-(2,5-difluorophenyl)-5-(5-(methylsulfonyl)-5,6-dihydropyrrolo[3,4-c]pyrrol-2(1H,3H,4H)-yl)tetrahydro-2H-pyran-3-amine], at DPP-IV enzyme, the IC50 was under 10 nM. Moreover, in the series on C57BL/6J mice, the change in vivo at 0.3 mg/kg was -49.1 ± 3.6%. In series [1], this compound showed an area under the curve (AUC) of 4750 ± 647 ng·h/mL, a Cmax of 459 ± 52.2 ng/mL and a half-life of 59.5 ± 6.44 h.
Consider `N[C@H]1C[C@@H](N2CC3CNCC3C2)CO[C@@H]1c1cc(F)ccc1F` (stereo partly drawn) [Compound 4, (2R,3S,5R)-2-(2,5-difluorophenyl)-5-(hexahydropyrrolo[3,4-c]pyrrol-2(1H)-yl)tetrahydro-2H-pyran-3-amine], for which the IC50 at DPP-IV enzyme was under 100 nM. Moreover, the change in vivo at 0.3 mg/kg in the series on C57BL/6J mice was -16.5 ± 3.8%.
As for `N[C@H]1C[C@@H](N2CC3=C(C2)CN(S(=O)(=O)C(F)(F)F)C3)CO[C@@H]1c1cc(F)ccc1F` [Compound 29, (2R,3S,5R)-2-(2,5-difluorophenyl)-5-(5-((trifluoromethyl)sulfonyl)-5,6-dihydropyrrolo[3,4-c]pyrrol-2(1H,3H,4H)-yl)tetrahydro-2H-pyran-3-amine], the IC50 at DPP-IV enzyme is under 30 nM. The change in vivo at 0.3 mg/kg with C57BL/6J mice was -27.7 ± 3.1%.
Regarding `N[C@H]1C[C@@H](N2CC3=C(CNC3)C2)CO[C@@H]1c1cc(F)ccc1F` [Compound 44, (2R,3S,5R)-2-(2,5-difluorophenyl)-5-(5,6-dihydropyrrolo[3,4-c]pyrrol-2(1H,3H,4H)-yl)tetrahydro-2H-pyran-3-amine], the IC50 at DPP-IV enzyme is under 30 nM. Besides, in the series on C57BL/6J mice, the change in vivo at 0.3 mg/kg was -12.5 ± 1.5%.
Turning to `CS(=O)(=O)N1CCC2(CCN([C@H]3CO[C@H](c4cc(F)ccc4F)[C@@H](N)C3)C2)CC1` [Compound 14, (2R,3S,5R)-2-(2,5-difluorophenyl)-5-(8-(methylsulfonyl)-2,8-diazaspiro[4.5]decan-2-yl)tetrahydro-2H-pyran-3-amine], the IC50 on DPP-IV enzyme was under 100 nM. The change in vivo at 0.3 mg/kg with C57BL/6J mice was -14.2 ± 3.4%.
The like results for `N[C@H]1C[C@@H](N2CC3=C(C2)CN(S(=O)(=O)c2ccc(F)cc2F)C3)CO[C@@H]1c1cc(F)ccc1F` [Compound 36, (2R,3S,5R)-2-(2,5-difluorophenyl)-5-(5-((2,4-difluorophenyl)sulfonyl)-5,6-dihydropyrrolo[3,4-c]pyrrol-2(1H,3H,4H)-yl)tetrahydro-2H-pyran-3-amine] were, in that order, under 10 nM and -22.2 ± 2.5%.
The like results for `N[C@H]1C[C@@H](N2CC3=C(C2)CN(S(=O)(=O)c2ccccc2)C3)CO[C@@H]1c1cc(F)ccc1F` [Compound 32, (2R,3S,5R)-2-(2,5-difluorophenyl)-5-(5-(phenylsulfonyl)-5,6-dihydropyrrolo[3,4-c]pyrrol-2(1H,3H,4H)-yl)tetrahydro-2H-pyran-3-amine] were, in that order, under 10 nM and -25.3 ± 3.9%.
Consider `N[C@H]1C[C@@H](N2CC3=C(CN(C=O)C3)C2)CO[C@@H]1c1cc(F)ccc1F` [Compound 48, 5-((3R,5S,6R)-5-amino-6-(2,5-difluorophenyl)tetrahydro-2H-pyran-3-yl)-3,4,5,6-tetrahydropyrrolo[3,4-c]pyrrole-2(1H)-carbaldehyde], for which the IC50 at DPP-IV enzyme was under 10 nM. The change in vivo at 0.3 mg/kg with C57BL/6J mice was -38.5 ± 1.5%.
As to `N[C@H]1C[C@@H](N2CC3=C(C2)CS(=O)(=O)C3)CO[C@@H]1c1cc(F)ccc1F` [Compound 17, 5-((3R,5S,6R)-5-amino-6-(2,5-difluorophenyl)tetrahydro-2H-pyran-3-yl)-3,4,5,6-tetrahydro-1H-thieno[3,4-c]pyrrole 2,2-dioxide], the change in vivo at 0.3 mg/kg with C57BL/6J mice was -27.3 ± 3.3%. In series [1], the AUC was 1550 ± 114 ng·h/mL, the Cmax was 419 ± 45.5 ng/mL and the half-life was 32.5 ± 5.91 h.
`N[C@H]1C[C@@H](N2CC3=C(CN(C(=O)C4CCCCC4)C3)C2)CO[C@@H]1c1cc(F)ccc1F` [Compound 26, (5-((3R,5S,6R)-5-amino-6-(2,5-difluorophenyl)tetrahydro-2H-pyran-3-yl)-5,6-dihydropyrrolo[3,4-c]pyrrol-2(1H,3H,4H)-yl)(cyclohexyl)methanone]: the IC50 at DPP-IV enzyme is under 30 nM. In addition, the change in vivo at 0.3 mg/kg with C57BL/6J mice is -20.1 ± 1.4%.

By IC50 is commonly meant the concentration that inhibits the measured activity by half. Broadly, the AUC is the area under the concentration-time curve, a measure of exposure. Usually Cmax stands for the highest concentration seen after dosing. In general, half-life refers to the time in which the quantity being followed falls by half.
